Test [1] addresses T1, BCAT2 (Homo sapiens, UniProt O15382).
T1 sequence (O15382 28-392): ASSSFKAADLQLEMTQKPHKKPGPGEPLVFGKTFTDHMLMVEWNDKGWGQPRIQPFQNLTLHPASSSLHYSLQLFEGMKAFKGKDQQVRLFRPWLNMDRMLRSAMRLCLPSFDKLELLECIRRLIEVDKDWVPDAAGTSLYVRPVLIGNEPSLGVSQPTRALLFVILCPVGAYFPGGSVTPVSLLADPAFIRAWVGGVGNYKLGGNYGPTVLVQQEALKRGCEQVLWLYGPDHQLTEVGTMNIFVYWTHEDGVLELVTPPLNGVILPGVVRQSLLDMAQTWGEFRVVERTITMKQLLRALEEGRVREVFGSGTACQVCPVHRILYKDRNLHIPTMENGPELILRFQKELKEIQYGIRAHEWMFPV
Kind of test: BCAT2 in vitro enzyme inhibition assay (hBCAT2, glutamate dehydrogenase/diaphorase/resazurin coupled fluorescence read). Conditions: hBCAT2, 1 h preincubation at 25° C., one hour reaction; average where tested multiple times. The format is biochemical. Put shortly: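 Coupled GDH/diaphorase/resazurin fluorescence (Ex 540/Em 590) read after 1 h reaction at 25 °C, SDS-stopped; enzyme (0.33 μg/mL in mix) first preincubated 1 h with compound, 10-point 3-fold series from 100 μM final, Tris pH 8.0 buffer with NaCl, BSA; technical duplicates, averaged across tests.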
On the technique in general: Resazurin is reduced to fluorescent resorufin, in cell work by metabolically active cells.

Test [2] concerns the target T1, BCAT2. Kind of test: BCAT2 cell inhibition using engineered A549 cells (MUT KO, BCAT1 KO; 13C6-KMV formation by LC-MS/MS). More on the design: expressed endogenous BCAT2; endogenous in cells; host or cells: A549 cells, MUT knockout and BCAT1 knockout. The format is cell-based. An excerpt:
Endogenous Methylmalonyl-CoA Mutase (MUT) and Branched Chain Aminotransferase 1 (BCAT1) in A549 cells was knocked out by CRISPR/CAS9 using the targeting system from TransOMIC Technologies. The following guide sequence was cloned into pCLIP-ALL-EFS-Blast vector to target human MUT: […] (SEQ ID NO: 35). The following guide sequence was cloned into pCLIP-ALL-EFS-Puro vector to target human BCAT1: […] (SEQ ID NO: 36). The resulting plasmids were co-transfected into 293T cells with VSV-G, P-PEX, and Fugene-6. Lentivirus was harvested and A549 cells were first transduced with lentivirus targeting MUT and polybrene. After genetic selection with blasticidin clonal selection was performed and validated via western blot analysis to confirm MUT was no longer expressed. These MUT KO cells were then transduced with lentivirus targeting BCAT1 and polybrene. After selection with puromycin clonal selection was performed and clones were validated via western blot analysis to confirm BCAT1 was no longer expressed in these cells. The result was an engineered A549 cell line that expressed endogenous BCAT2.
For KMV cell assays, on day 1, 25,000 cells/100 μL EMEM (10% FBS) were seeded in each well of a 96-well plate. On day 2, medium was replaced with 50 μL fresh EMEM (10% dialyzed FBS) containing 2× the assay concentration of experimental compound. After 15 minutes, 50 μL of 800 uM ^15N,^13C6-Isoleucine in EMEM (10% dialyzed FBS) was added to each well and incubated for 24 hours. On day 3, 50 μL of media from each well was collected and transferred to another 96-well plate for ^13C6-3-Methyl-2-Oxopentanoic Acid (KMV) analysis via LC-MS/MS. In the remaining assay wells 50 μL of Promega Glo CTG reagent was added and luminescence was measured as a cell viability readout.
For LC-MS/MS analysis 5 μL of cell assay media from each well was transferred to a 96-well plate and 45 μL of ACN:0.1% NaOH (50:50, v/v)^+0.20 nM d8-KMV was added and mixed on a shaker. 15 μL was transferred to a new 96-well plate and 15 μL of 10 mg/mL PFBHA solution was added and mixed on the shaker. The reaction was placed on ice for 30 minutes and quenched with 10 μL of ACN: Acetone (50:50, v/v) on a shaker. The resulting mixture was diluted with 100 μL of ACN:0.1% NaOH (50:50, v/v) on a shaker. 10 μL of sample were injected on the Shimadzu 20AD LC-MS/MS to quantify ^13C6-KMV.
Where a compound was tested multiple times, the average value of the tests is reported.

From US20260334439A1, “BCAT2 INHIBITORS” (Agios Pharmaceuticals, Inc., priority 2023, published 2026) come the findings set out here.

The structures appear in SMILES notation.

One may read the IC50 as the point on the concentration scale where inhibition reaches its midpoint. In the case of `CN1CC(NC(=O)c2cc(Cl)ccc2O)C[C@H](n2c(-c3ccccc3F)nc3cnc(-c4nc[nH]n4)cc32)C1` (stereo in doubt) [Example 143, 5-chloro-N-(5-(2-(2-fluorophenyl)-6-(1H-1,2,4-triazol-3-yl)-1H-imidazo[4,5-c]pyridin-1-yl)-1-methylpiperidin-3-yl)-2-hydroxybenzamide], the IC50 against BCAT2 [1] and on BCAT2 [2] was below 0.1 µM throughout.

On to `O=C1c2cc(Cl)ccc2OCN1[C@H]1CCC[C@@H](n2c(-c3ccccc3F)nc3cnc(-n4nccn4)cc32)[C@@H]1O` [Example 214, 6-chloro-3-((1S,2S,3R)-3-(2-(2-fluorophenyl)-6-(2H-1,2,3-triazol-2-yl)-1H-imidazo[4,5-c]pyridin-1-yl)-2-hydroxycyclohexyl)-2,3-dihydro-4H-benzo[e][1,3]oxazin-4-one], for which the IC50 against BCAT2 [1] and on BCAT2 [2] was below 0.1 µM each time.

As to `O=C(N[C@@H]1C[C@@H](OC(F)F)C[C@H](n2c(-c3ccccc3F)nc3cnc(-c4ncn[nH]4)cc32)C1)c1cc(F)ccn1` (relative stereo) [compound 128], the half-maximal inhibitory concentration (IC50) was below 0.1 µM against BCAT2 [1] and 0.1 to 0.5 µM at BCAT2 [2] (engineered A549 cells, 24 hours, 13C6-KMV in media, average where tested multiple times, read-out: BCAT2 Cell Inhibition (IC50)).

With `O=c1c2cc(F)ccc2ncn1[C@H]1CCC[C@@H](n2c(-c3ccccc3F)nc3cnc(-c4nc[nH]n4)cc32)C1` [Example 209, 6-fluoro-3-((1S,3R)-3-(2-(2-fluorophenyl)-6-(1H-1,2,4-triazol-3-yl)-1H-imidazo[4,5-c]pyridin-1-yl)cyclohexyl)quinazolin-4(3H)-one], the half-maximal inhibitory concentration (IC50) against BCAT2 [1] and on BCAT2 [2] was below 0.1 µM in each case.

Turning to `O=C1c2cc(Cl)ccc2OCN1[C@H]1CCC[C@@H](n2c(-c3ccccc3F)nc3cnc(-c4nc[nH]n4)cc32)[C@@H]1O` [Example 213, 6-chloro-3-((1S,2S,3R)-3-(2-(2-fluorophenyl)-6-(1H-1,2,4-triazol-3-yl)-1H-imidazo[4,5-c]pyridin-1-yl)-2-hydroxycyclohexyl)-2,3-dihydro-4H-benzo[e][1,3]oxazin-4-one], the IC50 against BCAT2 [1] and against BCAT2 [2] was below 0.1 µM in each case.

In the case of `O=C(N[C@H]1CCC[C@@H](n2c(-c3ccccc3F)nc3cnc(-n4nccn4)cc32)C1)c1cc(Cl)ccc1OCCO` [Example 68, 5-chloro-N-((1S,3R)-3-(2-(2-fluorophenyl)-6-(2H-1,2,3-triazol-2-yl)-1H-imidazo[4,5-c]pyridin-1-yl)cyclohexyl)-2-(2-hydroxyethoxy)benzamide], the IC50 against BCAT2 [1] and at BCAT2 [2] was below 0.1 µM in each case.

`CN1C[C@H](N2Cc3ccc(F)cc3C2=O)C[C@H](n2c(-c3ccccc3OCCO)nc3ccc(-c4ncccn4)cc32)C1` [Example 243, 6-fluoro-2-((3R,5S)-5-(2-(2-(2-hydroxyethoxy)phenyl)-6-(pyrimidin-2-yl)-1H-benzo[d]imidazol-1-yl)-1-methylpiper-idin-3-yl)isoindolin-1-one]: the results for the IC50 on BCAT2 [1] and against BCAT2 [2] were below 0.1 µM and 0.1 to 0.5 µM, respectively.

Turning to `O=C(N[C@H]1CCC[C@@H](n2c(-c3ncccc3F)nc3cnc(-c4nc[nH]n4)cc32)C1)c1cc(F)ccn1` [Example 16, 4-fluoro-N-((1S,3R)-3-(2-(3-fluoropyridin-2-yl)-6-(1H-1,2,4-triazol-3-yl)-1H-imidazo[4,5-c]pyridin-1-yl)cyclohexyl)picolinamide], the figures for the IC50 against BCAT2 [1] and against BCAT2 [2] were below 0.1 µM and 0.1 to 0.5 µM, respectively.

With `O=C1c2c(F)cccc2CN1[C@H]1CCC[C@@H](n2c(-c3ccccc3F)nc3cnc(-c4nc[nH]n4)cc32)C1` [Example 175, 7-fluoro-2-((1S,3R)-3-(2-(2-fluorophenyl)-6-(1H-1,2,4-triazol-3-yl)-1H-imidazo[4,5-c]pyridin-1-yl)cyclohexyl)isoindolin-1-one], the IC50 at BCAT2 [1] and against BCAT2 [2] was below 0.1 µM in each case.

Consider `O=C(N[C@H]1CCC[C@@H](n2c(-c3ccccc3F)nc3cnc(-c4nc[nH]n4)cc32)C1)c1ccccc1F` [Example 76, 2-fluoro-N-((1S,3R)-3-(2-(2-fluorophenyl)-6-(1H-1,2,4-triazol-3-yl)-1H-imidazo[4,5-c]pyridin-1-yl)cyclohexyl)benzamide], for which the IC50 on BCAT2 [1] and at BCAT2 [2] was below 0.1 µM throughout.

Take `Cc1coc(-c2cc3c(cn2)nc(-c2ccccc2OCCO)n3[C@@H]2CCC[C@H](N3Cc4ccc(F)cc4C3=O)C2)n1` [Example 181, 6-fluoro-2-((1S,3R)-3-(2-(2-(2-hydroxyethoxy)phenyl)-6-(4-methyloxazol-2-yl)-1H-imidazo[4,5-c]pyridin-1-yl)cyclohexyl)isoindolin-1-one]: the IC50 against BCAT2 [1] and against BCAT2 [2] was below 0.1 µM in each case.

Regarding `CC(C)Cc1nc2cnc(-n3nccn3)cc2n1[C@@H]1CCC[C@H](NC(=O)c2cc(Cl)ccc2OCCO)C1` [Example 57, 5-chloro-2-(2-hydroxyethoxy)-N-((1S,3R)-3-(2-isobutyl-6-(2H-1,2,3-triazol-2-yl)-1H-imidazo[4,5-c]pyridin-1-yl)cyclohexyl)benzamide], the concentration for half-maximal inhibition (IC50) on BCAT2 [1] is below 0.1 µM; on BCAT2 [2] it was 0.5 to 1 µM.

With `O=C1c2cc(F)ccc2CN1[C@H]1CCC[C@@H](n2c(-c3ccccc3F)nc3cnc(-c4nc[nH]n4)cc32)C1` [Example 169, 6-fluoro-2-((1S,3R)-3-(2-(2-fluorophenyl)-6-(1H-1,2,4-triazol-3-yl)-1H-imidazo[4,5-c]pyridin-1-yl)cyclohexyl)isoindolin-1-one], the IC50 at BCAT2 [1] and at BCAT2 [2] was below 0.1 µM each time.

Turning to `O=C(N[C@H]1CCC[C@@H](n2c(-c3ccccc3F)nc3cnc(-c4nc[nH]n4)cc32)C1)c1cc(Cl)ccc1OCCN1CCCC1` [Example 35, 5-chloro-N-((1S,3R)-3-(2-(2-fluorophenyl)-6-(1H-1,2,4-triazol-3-yl)-1H-imidazo[4,5-c]pyridin-1-yl)cyclohexyl)-2-(2-(pyrrolidin-1-yl)ethoxy)benzamide], the IC50 on BCAT2 [1] lay within 0.1 to 0.5 µM; on BCAT2 [2] it was 0.5 to 1 µM.

On to `CN1C[C@H](NC(=O)c2cc(Cl)ccc2OCCO)C[C@H](n2c(-c3ccccc3F)nc3cnc(-c4nc[nH]n4)cc32)C1` [Example 150, 5-chloro-N-((3R,5S)-5-(2-(2-fluorophenyl)-6-(1H-1,2,4-triazol-3-yl)-1H-imidazo[4,5-c]pyridin-1-yl)-1-methylpiperidin-3-yl)-2-(2-hydroxyethoxy)benzamide], for which the IC50 is below 0.1 µM against BCAT2 [1] and 0.1 to 0.5 µM on BCAT2 [2].

In the case of `O=C(N[C@H]1CCC[C@@H](n2c(-c3c(O)cccc3F)nc3cnc(-c4nc[nH]n4)cc32)C1)c1cc(Cl)ccn1` [Example 70, 4-chloro-N-((1S,3R)-3-(2-(2-fluoro-6-hydroxyphenyl)-6-(1H-1,2,4-triazol-3-yl)-1H-imidazo[4,5-c]pyridin-1-yl)cyclohexyl)picolinamide], the IC50 at BCAT2 [1] and on BCAT2 [2] was below 0.1 µM in each case.

Regarding `CC(C)(O)COc1ccc(Cl)cc1C(=O)N[C@H]1CCC[C@@H](n2c(-c3ccccc3F)nc3cnc(-n4nccn4)cc32)C1` [Example 71, 5-chloro-N-((1S,3R)-3-(2-(2-fluorophenyl)-6-(2H-1,2,3-triazol-2-yl)-1H-imidazo[4,5-c]pyridin-1-yl)cyclohexyl)-2-(2-hydroxy-2-methylpropoxy)benzamide], the half-inhibitory concentration (IC50) at BCAT2 [1] and against BCAT2 [2] was below 0.1 µM throughout.
